Tests used:
[1] = hydroperoxides, cited from earlier work; for Average HPO: average of lots tested; for High HPO Lot: highest lot; for Low HPO Lot: lowest lot
[2] = Dissolution studies of Lasofoxifene in organic solvents and surfactants; type: physicochemical; conditions: Lasofoxifene 1 mg/ml in the labelled solvent/surfactant; visual examination
[3] = as above; type: physicochemical; conditions: visual examination; for Dissolution of Lasofoxifene in various organic solvents and surfactants, 2 mg/ml: Lasofoxifene 2 mg/ml in the labelled solvent/surfactant; for Dissolution of Lasofoxifene in various organic solvents and surfactants, 3 mg/ml: Lasofoxifene 3 mg/ml in the labelled solvent/surfactant; for Dissolution of Lasofoxifene in various organic solvents and surfactants, 6 mg/ml: Lasofoxifene 6 mg/ml in the labelled solvent/surfactant
Procedure: The solubility of Lasofoxifene was investigated by screening various organic solvents and surfactants in increasing concentrations. The term “formulation” may refer to a pharmaceutical composition comprising […] pharmaceutically acceptable excipients.
First, 1 mg of Lasofoxifene was weighed into Eppendorf vessels and 500 μl of organic solvents and surfactants as listed in Table 20 were added. In cases of insufficient dissolution of the API, samples were treated with ultrasound for 30 min and, if necessary, heated to 50° C. while shaking (300 rpm). Afterwards, samples were examined visually regarding drug dissolution. In case of entire dissolution, the experiment was repeated with increasing drug concentrations until maximum dissolution was achieved. In addition, further organic solvents and surfactants were tested.

[4] = Peroxide value of excipients at the opening of the container; type: physicochemical; conditions: measured after opening the container

| Compound | Average HPO [1] | High HPO Lot [1] | Low HPO Lot [1] | Dissolution of Lasofoxifene in various organic solvents and surfactants, 1 mg/ml [2] | Dissolution of Lasofoxifene in various organic solvents and surfactants, 2 mg/ml [3] | Dissolution of Lasofoxifene in various organic solvents and surfactants, 3 mg/ml [3] | Dissolution of Lasofoxifene in various organic solvents and surfactants, 6 mg/ml [3] | Peroxide value [4] |
| --- | --- | --- | --- | --- | --- | --- | --- | --- |
| OC[C@@H](O)[C@@H](O)[C@H](O)[C@H](O)CO [Mannitol] | <10 nmol/g | <10 nmol/g | <10 nmol/g | – | – | – | – | – |
| OC[C@H]1O[C@@H](O[C@H]2[C@H](O)[C@@H](O)C(O)O[C@@H]2CO)[C@H](O)[C@@H](O)[C@H]1O (stereo partly drawn) [Lactose] | <10 nmol/g | 10 nmol/g | <10 nmol/g | – | – | – | – | – |
| C[S+](C)[O-] [DMSO, dimethyl sulfoxide] | – | – | – | dissolved | dissolved | dissolved | dissolved | – |
| Tetraglycol [Tetraglycol (TG)] | – | – | – | dissolved | dissolved | partially | not dissolved | 1.55 µmol |
| CO[C@H]1CO[C@H]2[C@@H]1OC[C@H]2OC [Isosorbide dimethyl ether (DMI), Isosorbide dimethyl ether] | – | – | – | dissolved* | partially | not dissolved | – | – |
| OC[C@H]1O[C@@](CO)(O[C@H]2O[C@H](CO)[C@@H](O)[C@H](O)[C@H]2O)[C@@H](O)[C@@H]1O [Sucrose] | <10 nmol/g | 20 nmol/g | <10 nmol/g | – | – | – | – | – |
